The test system of this test is B2M gene. The test is described as follows: B2M reactivation by 5-azadC in cells silenced by ELXR5-ZIM3 or CasX 491 (Example 12). As to conditions: 0 μM to 20 μM 5-azadC; B2M-targeting gRNA.

Each structure is given as a SMILES string.

As to `Nc1ncn([C@H]2C[C@H](O)[C@@H](CO)O2)c(=O)n1` [5-azadC, 5-aza-2′-deoxycytidine, reference compound], the “reactivation of the B2M gene upon 5-azadC treatment” value is on record as “reactivation of the B2M gene”.

The values are drawn from patent US12553037B2, “Engineered class 2, type V repressor systems” (Scribe Therapeutics Inc., priority 2021, dated 2026).
